One experiment concerns Melanoma. In words: NCI GI50 on tumor cells, melanoma. The following applies: Melanoma cell lines; NA = inactive products. Type of experiment: cell-based, human. Here is the method:
(§1) Biological assays were carried out at the National Cancer Institute according to known experimental protocols [(a) Monks A., Scudiero D., Skehan P., Shoemaker R., Paull K., Vistica D., Hose C., Langley J., Cronise P., Vaigro-Wolff A., Gray-Goodrich M., Campbell H., Mayo J., Boyd M., J. Natl. Cancer Inst., 83, 757-766 (1991). (b) Paull K. D., Shoemaker R. H., Hods L., Monks A., Scudiero D. A., Rubinstein L., Plowman J., Boyd M. R., J. Natl. Cancer Inst., 81, 1088-1092 (1989). (c) Boyd M. R., Paull K. D., Rubinstein L. R., Cytotoxic Anticancer Drugs: Models and Concept for Drug discovery, Valeriote F. A., Corbett T., Baker L., Eds., Kluwer Academic Publishers: Amsterdam, 1992, pp. 11].

A further experiment deals with Prostate. In words: NCI GI50 on tumor cells, prostate. The following applies: Prostate cell lines; NA = inactive products. Type of experiment: cell-based, human. Here is the method:
as §1

In a further experiment the test system is Microcitoma. In words: NCI GI50 on tumor cells, microcitoma. Type of experiment: cell-based, human. The following applies: Microcitoma cell lines; NA = inactive products. As to the method: as §1
For another experiment, the system named is SNC. In words: NCI GI50 on tumor cells, SNC. The class given is cell-based, human. The following applies: SNC cell lines; NA = inactive products. As to the method:
as §1

Another experiment concerns Leukemia. In words: NCI GI50 on tumor cells, leukemia. The class given is cell-based, human. The conditions noted are these: Leukemia cell lines; NA = inactive products. Here is the method: as §1
In experiment [1] the test system is 60 human tumor cell lines. In words: NCI primary screening on 60 human tumor cell lines, mean over various tumor cells. The conditions noted are these: for GI50 Mean: mean over the tumor cell panels, NA = inactive products; for antiproliferative activity: in words, in both cases (three-cell-line preliminary tests and various tumor cells). Type of experiment: cell-based. Here is the method:
The cytotoxic activity of compounds (I) was evidenced in primary screening studies on 60 human tumor cell lines.
as §1

The test system of experiment [2] is MCF7 breast, NCI-H460 microcitoma and SF-268 SNC. In words: NCI preliminary tests on three cell lines, mean GI50. The conditions noted are these: mean concentration causing 50% inhibition of cell growth; N.A. = inactive in preliminary tests on three cell lines. The class given is cell-based, human. Here is the method:
as §1
Table 1 reports the GI50, namely the mean concentration (μM) of substance which causes a 50% inhibition on the cell growth in preliminary tests carried out on three cell lines (MCF7 breast, NCI-H460 microcitoma and SF-268 SNC).

Another experiment has as its system Ovary. In words: NCI GI50 on tumor cells, ovary. The class given is cell-based, human. The following applies: Ovary cell lines; NA = inactive products. As to the method: as §1
A further experiment deals with Kidney. In words: NCI GI50 on tumor cells, kidney. The class given is cell-based, human. The following applies: Kidney cell lines; NA = inactive products. As to the method: as §1
The next experiment deals with Breast. In words: NCI GI50 on tumor cells, breast. The following applies: Breast cell lines; NA = inactive products. The class given is cell-based, human. Here is the method:
as §1

Another experiment relates to Colon. In words: NCI GI50 on tumor cells, colon. The class given is cell-based, human. The conditions noted are these: Colon cell lines; NA = inactive products. As to the method:
as §1

Turning to `c1ccc2c(c1)CCc1c(-c3nnco3)c[nH]c1-2` [Ie, 3-[[1,3,4]oxadiazol-2′-yl]-4,5-dihydro-1H-benzo[g]indole], the GI50 – broadly, the concentration giving 50% growth inhibition – in the experiment on Melanoma was found to be 28.8 µM; in the experiment with Prostate, 32.3 µM; with Microcitoma, 21.8 µM; with SNC, 28.2 µM; in the experiment with Leukemia, 26.3 µM; in the experiment with Ovary, 28.2 µM. In addition, the figures for the GI50 with Kidney, with Breast and in the experiment on Colon were 27.5 µM, 27.5 µM and 25.7 µM, respectively. The “GI50 Mean” value in [1] was determined as 26.3 µM. The “GI50 μM) Mean” value in experiment [2] is 26.6 µM.
`Cc1nnc(-c2c[nH]c3c2Cc2ccccc2-3)o1` [Ib, 3-[[1,3,4]oxadiazole-5′-methyl-2′-yl]-1,4-dihydro-indeno[1,2-b]pyrrole]: the GI50 with Melanoma came out at 79.4 µM; with Microcitoma, 93.3 µM; with SNC it was 75.8 µM; in the experiment with Leukemia, 81.3 µM; with Ovary it was 30.2 µM; with Kidney, 91.2 µM. This molecule returned a concentration for 50% growth inhibition (GI50) in the experiment on Breast of 77.6 µM. For the same molecule, the “GI50 Mean” value in experiment [1] was 75.8 µM. For the same molecule, in [2], the “GI50 μM) Mean” value was 75.8 µM.
Regarding `c1ccc(-c2nnc(-c3c[nH]c4c3Cc3ccccc3-4)o2)cc1` [Ic, 3-[[1,3,4]oxadiazole-5′-phenyl-2′-yl]-1,4-dihydro-indeno[1,2-b]pyrrole], the GI50 in the experiment on Melanoma came out at 2.34 µM; with Prostate it was 4.78 µM; in the experiment with Microcitoma, 3.39 µM; in the experiment on SNC it was 2.95 µM; with Leukemia it was 1.82 µM; with Ovary, 4.57 µM. Besides, the GI50 in the experiment with Kidney was found to be 6.31 µM; in the experiment with Breast, 3.16 µM; in the experiment on Colon, 1 µM. Also, in [1], the antiproliferative activity entry is listed as “significant antiproliferative activity”. Besides, in experiment [1], the “GI50 Mean” value is 2.9 µM. The “GI50 μM) Mean” value in [2] is 2.9 µM.
`c1ccc(-c2nnc(-c3c[nH]c4c3ccc3ccccc34)o2)cc1` [Il, 3-[[1,3,4]oxadiazole-5′-phenyl-2′-yl]-1H-benzo[g]indole]: the concentration for 50% growth inhibition (GI50) in the experiment on Melanoma came out at 2.71 µM; in the experiment on Prostate, 1.28 µM; with Microcitoma, 2.36 µM; in the experiment on SNC, 1.21 µM; in the experiment on Leukemia it was 0.64 µM; with Ovary it was 1.7 µM. Besides, the GI50 in the experiment on Kidney is 2.04 µM; with Breast, 0.6 µM; with Colon it was 0.7 µM. In experiment [1], the antiproliferative activity result was “significant antiproliferative activity”. Moreover, the “GI50 Mean” value in [1] is 1.28 µM. In addition, the “GI50 μM) Mean” value in [2] is 1.28 µM.
With `c1ccc2c(c1)Cc1c(-c3nnco3)c[nH]c1-2` [Ia, 3-[[1,3,4]Oxadiazol-2′-yl]-1,4-dihydro-indeno[1,2-b]pyrrole], the GI50 with Melanoma was 77.3 µM; with Microcitoma, 57.8 µM; in the experiment on SNC, 86.7 µM; in the experiment on Leukemia it was 79.7 µM; with Ovary, 81.2 µM; in the experiment with Kidney, 67.3 µM. Further, the figures for the GI50 in the experiment on Breast and in the experiment on Colon were 73.2 µM and 81.2 µM, respectively. In experiment [1], the “GI50 Mean” value was found to be 74.1 µM. In addition, the “GI50 μM) Mean” value in experiment [2] was determined as 74.1 µM.
As to `Cn1cc(-c2nnco2)c2ccc3ccccc3c21` [Im, 1-methyl-3-[[1,3,4]oxadiazol-2′-yl]-1H-benzo[g]indole], the GI50 amounted to 43.6 µM in the experiment on Melanoma; 54.9 µM in the experiment on Prostate; 17.7 µM in the experiment on Microcitoma; 23.9 µM with SNC; 54.9 µM in the experiment with Leukemia; 41.6 µM with Ovary. Further, the GI50 was found to be 20.8 µM with Kidney, 44.6 µM in the experiment with Breast and 38.9 µM in the experiment with Colon. The “GI50 Mean” value in [1] was found to be 33.1 µM. For the same molecule, the “GI50 μM) Mean” value in [2] was determined as 33.1 µM.
Turning to `c1ccc2c(c1)ccc1c(-c3nnco3)c[nH]c12` [Ih, 3-[[1,3,4]oxadiazol-2′-yl]-1H-benzo[g]indole], the GI50 was determined as 33.8 µM with Melanoma; 62.3 µM with Prostate; 22.3 µM in the experiment with Microcitoma; 32.3 µM with SNC; 44.6 µM with Leukemia; 38.9 µM in the experiment on Ovary. In addition, the GI50 in the experiment on Kidney worked out at 38 µM; with Breast, 40 µM; with Colon, 33.8 µM. In addition, the “GI50 Mean” value in [1] is 35.4 µM. For the same molecule, the “GI50 μM) Mean” value in experiment [2] was determined as 35.4 µM.

Source of the values: patent US20070173535A1, “Oxadiazoles having antiproliferative activity” (priority 2002, published 2007).
